Experimental data as given in patent EP0034120A1, “Derivatives of phenoxy-phenoxy-carboxylic acids” (CIBA-GEIGY AG, priority 1980, dated 1981).

Tests used:
Assay type in all cases: in vivo
beta vulgaris = test: Herbicidal action, pre-emergent application (greenhouse); set-up: key: 1 Pflanze abgestorben; 2-4 schwere Schädigung; 3: 2-4 schwere Schädigung; 2-4 schwere Schädigung; 5, 6 mittlere Schäden; 5, 6 mittlere Schäden; 7, 8 leichte Schäden; 7, 8 leichte Schäden; 9 Pflanze gedeiht normal, wie unbehandelte Kontrollpflanze; conditions: after 3 weeks
Method: (§1) wurde durchfolgende Versuche ermittelt: Herbizide Wirkung bei Applikation der Wirkstoffe vor dem Auflaufen der Pflanzen (pre-emergent) Im Gewächshaus werden Pflanzensamen in Blumentöpfe von ca. 11 cm Durchmesser gesät. […] Die Töpfe werden dann im Gewächshaus unter optimalen Bedingungen für das Pflanzenwachstum, regelmässiges Bewässern, einer Temperatur von 22-25°C und 50-70% relativer Luftfeuchtigkeit gehalten. Der Versuch wird nach 3 Wochen abgebrochen und der Zustand der Pflanzen gemäss dem folgenden EWRC (European Weed Research Councel) Bewertungsschema registriert: • 1 Pflanze abgestorben • 2-4 schwere Schädigung • 5, 6 mittlere Schäden • 7, 8 leichte Schäden • 9 Pflanze gedeiht normal, wie unbehandelte Kontrollpflanze.

Weizen = test: as above; set-up: key: 1 Pflanze abgestorben; 2-4 schwere Schädigung; 3: 2-4 schwere Schädigung; 2-4 schwere Schädigung; 5, 6 mittlere Schäden; 5, 6 mittlere Schäden; 7, 8 leichte Schäden; 7, 8 leichte Schäden; 9 Pflanze gedeiht normal, wie unbehandelte Kontrollpflanze; conditions: after 3 weeks
Method: as §1

chrysanthemum l. = test: as above; set-up: key: 1 Pflanze abgestorben; 2-4 schwere Schädigung; 3: 2-4 schwere Schädigung; 2-4 schwere Schädigung; 5, 6 mittlere Schäden; 5, 6 mittlere Schäden; 7, 8 leichte Schäden; 7, 8 leichte Schäden; 9 Pflanze gedeiht normal, wie unbehandelte Kontrollpflanze; conditions: after 3 weeks
Method: as §1

amarantus retrofl. = test: as above; set-up: key: 1 Pflanze abgestorben; 2-4 schwere Schädigung; 3: 2-4 schwere Schädigung; 2-4 schwere Schädigung; 5, 6 mittlere Schäden; 5, 6 mittlere Schäden; 7, 8 leichte Schäden; 7, 8 leichte Schäden; 9 Pflanze gedeiht normal, wie unbehandelte Kontrollpflanze; conditions: after 3 weeks
Method: as §1

Reis = test: as above; set-up: key: 1 Pflanze abgestorben; 2-4 schwere Schädigung; 3: 2-4 schwere Schädigung; 2-4 schwere Schädigung; 5, 6 mittlere Schäden; 5, 6 mittlere Schäden; 7, 8 leichte Schäden; 7, 8 leichte Schäden; 9 Pflanze gedeiht normal, wie unbehandelte Kontrollpflanze; conditions: after 3 weeks
Method: as §1

sinapis alba = test: as above; set-up: key: 1 Pflanze abgestorben; 2-4 schwere Schädigung; 3: 2-4 schwere Schädigung; 2-4 schwere Schädigung; 5, 6 mittlere Schäden; 5, 6 mittlere Schäden; 7, 8 leichte Schäden; 7, 8 leichte Schäden; 9 Pflanze gedeiht normal, wie unbehandelte Kontrollpflanze; conditions: after 3 weeks
Method: as §1

viola tricolor = test: as above; set-up: key: 1 Pflanze abgestorben; 2-4 schwere Schädigung; 3: 2-4 schwere Schädigung; 2-4 schwere Schädigung; 5, 6 mittlere Schäden; 5, 6 mittlere Schäden; 7, 8 leichte Schäden; 7, 8 leichte Schäden; 9 Pflanze gedeiht normal, wie unbehandelte Kontrollpflanze; conditions: after 3 weeks
Method: as §1

abutilon sp = test: as above; set-up: key: 1 Pflanze abgestorben; 2-4 schwere Schädigung; 3: 2-4 schwere Schädigung; 2-4 schwere Schädigung; 5, 6 mittlere Schäden; 5, 6 mittlere Schäden; 7, 8 leichte Schäden; 7, 8 leichte Schäden; 9 Pflanze gedeiht normal, wie unbehandelte Kontrollpflanze; conditions: after 3 weeks
Method: as §1

chenopodium sp. = test: as above; set-up: key: 1 Pflanze abgestorben; 2-4 schwere Schädigung; 3: 2-4 schwere Schädigung; 2-4 schwere Schädigung; 5, 6 mittlere Schäden; 5, 6 mittlere Schäden; 7, 8 leichte Schäden; 7, 8 leichte Schäden; 9 Pflanze gedeiht normal, wie unbehandelte Kontrollpflanze; conditions: after 3 weeks
Method: as §1

[1] = tested on: Baumwollpflanzen der Sorte Deltapine; test: Desiccation and defoliation action on cotton; conditions: Aufwandmenge 0,6 kg/ha, nach 14 Tagen; only a few dried-up leaves left on the plant
Description: Im Gewächshaus wurden Baumwollpflanzen der Sorte Deltapine in Tontöpfen angezogen. Nach abgeschlossener Kapselbildung wurden sie mit wässrigen Zubereitungen der Wirkstoffe in einer Aufwandmenge, die 1,2, 0,6 und 0,3 kg/ha im Feld entspräche, gespritzt. Unbehandelte Pflanzen wurden als Kontrolle belassen. Die Auswertung des Versuches erfolgte 3, 7 und 14 Tage nach Applikation der Versuchssubstanz durch Bestimmen des Grades an Defoliation (% abgefallene Blätter) und an Dessikation (% Austrocknung der an der Pflanze verbleibenden Blätter).

Row | Structure (SMILES) | Zustand der Pflanzen (EWRC Bewertungsschema) (beta vulgaris; Aufwandmenge 2 kg/ha) | Zustand der Pflanzen (EWRC Bewertungsschema) (beta vulgaris; Aufwandmenge 4 kg/ha) | Zustand der Pflanzen (EWRC Bewertungsschema) (Weizen; Aufwandmenge 2 kg/ha) | Zustand der Pflanzen (EWRC Bewertungsschema) (Weizen; Aufwandmenge 4 kg/ha) | Zustand der Pflanzen (EWRC Bewertungsschema) (chrysanthemum l.; Aufwandmenge 2 kg/ha) | Zustand der Pflanzen (EWRC Bewertungsschema) (chrysanthemum l.; Aufwandmenge 4 kg/ha) | Zustand der Pflanzen (EWRC Bewertungsschema) (amarantus retrofl.; Aufwandmenge 2 kg/ha) | Zustand der Pflanzen (EWRC Bewertungsschema) (amarantus retrofl.; Aufwandmenge 4 kg/ha) | Zustand der Pflanzen (EWRC Bewertungsschema) (Reis; Aufwandmenge 2 kg/ha) | Zustand der Pflanzen (EWRC Bewertungsschema) (Reis; Aufwandmenge 4 kg/ha) | Zustand der Pflanzen (EWRC Bewertungsschema) (sinapis alba; Aufwandmenge 2 kg/ha) | Zustand der Pflanzen (EWRC Bewertungsschema) (sinapis alba; Aufwandmenge 4 kg/ha) | Zustand der Pflanzen (EWRC Bewertungsschema) (viola tricolor; Aufwandmenge 2 kg/ha) | Zustand der Pflanzen (EWRC Bewertungsschema) (viola tricolor; Aufwandmenge 4 kg/ha) | Zustand der Pflanzen (EWRC Bewertungsschema) (abutilon sp; Aufwandmenge 2 kg/ha) | Zustand der Pflanzen (EWRC Bewertungsschema) (abutilon sp; Aufwandmenge 4 kg/ha) | Zustand der Pflanzen (EWRC Bewertungsschema) (chenopodium sp.; Aufwandmenge 2 kg/ha) | Zustand der Pflanzen (EWRC Bewertungsschema) (chenopodium sp.; Aufwandmenge 4 kg/ha) | Wirkung (Defoliation und Dessikation) [1]
1 | CCOC(=O)CCC(C)Oc1cc(Oc2ccc(C(F)(F)F)cc2Br)ccc1Cl (stereo not drawn) [compound 16] | 1 | 1 | 9 | 9 | 1 | 1 | 2 | 1 | 9 | 9 | 1 | 1 | 2 | 1 | 5 | 1 | 1 | 1 | 90%
2 | CC(CCC(=O)O)Oc1cc(Oc2ccc(C(F)(F)F)cc2Cl)ccc1Cl (stereo not drawn) [compound 6] | 1 | 1 | 9 | 9 | 2 | 1 | 1 | 1 | 8 | 8 | 1 | 1 | 1 | 1 | 2 | 1 | 1 | 1 | 
3 | COC(=O)CC(=O)C(C)Oc1cc(Oc2ccc(C(F)(F)F)cc2Cl)ccc1Cl (stereo not drawn) [compound 3, 4-[3'-(2"-Chlor-4"-trifluormethylphenoxy)-6'-chlorphen-oxy]-propanoylessigsäure-methylester] | 1 | 1 | 9 | 9 | 1 | 1 | 1 | 1 | 7 | 6 | 2 | 1 | 3 | 1 | 6 | 6 | 1 | 1 | 90%
4 | CCNC(=O)CCC(C)Oc1cc(Oc2ccc(C(F)(F)F)cc2Cl)ccc1Cl (stereo not drawn) [compound 7] | 1 | 1 | 9 | 9 | 2 | 1 | 1 | 1 | 8 | 8 | 1 | 1 | 2 | 1 | 1 | 1 | 1 | 1 | 90%
5 | CCOC(=O)C=CC(C)Oc1cc(Oc2ccc(C(F)(F)F)cc2Br)ccc1Cl (stereo not drawn) [compound 15] | 2 | 2 | 9 | 9 | 2 | 1 | 1 | 1 | 9 | 9 | 4 | 1 | 2 | 1 | 6 | 2 | 1 | 1 | 
